Among the data in the supplement of paper PMC10627819 are Bliss interaction score values, retold here.

Common to all, as to test: Bliss interaction score (quartile over a dose matrix) (fitness difference); higher = more antagonism (negative = synergy)
In one assay the test system is S. aureus Newman. In outline: (§1)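 The Bliss score is observed minus expected fitness, where expected fitness is the product of the single-drug fitness values inferred from the combination data. Fitness is the OD595 at the onset of stationary phase over the plate's robust no-drug mean, capped at 1. Scores are summarised by quartiles over technical, biological and donor/recipient replicates.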

For a further assay, the system named is S. aureus DSM 20231. The procedure, abridged: as §1
Another assay deals with B. subtilis 168. The procedure, abridged: as §1
The subject of another assay is S. pneumoniae D39V. The procedure, abridged:
as §1
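Also: first quartile when negative (synergy) and third quartile when positive (antagonism).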

For `CO[C@@]12[C@H](COC(N)=O)C3=C(C(=O)C(C)=C(N)C3=O)N1C[C@@H]1N[C@@H]12` [MitomycinC] + CCCCCCCCCC(=O)N[C@@H]1[C@H]([C@@H]([C@H](O[C@H]1OC2=C3C=C4C=C2OC5=C(C=C(C=C5)[C@H]([C@H]6C(=O)N[C@@H](C7=C(C(=CC(=C7)O)OC8[C@H]([C@H]([C@@H]([C@H](O8)CO)O)O)O)C9=C(C=CC(=C9)[C@H](C(=O)N6)NC(=O)[C@@H]4NC(=O)[C@@H]1C2=CC(=CC(=C2)OC2=C(C=CC(=C2)[C@H](C(=O)N[C@H](CC2=CC(=C(O3)C=C2)Cl)C(=O)N1)N)O)O)O)C(=O)O)O[C@H]1[C@@H]([C@H]([C@@H]([C@H](O1)CO)O)O)NC(=O)C)Cl)CO)O)O [Teicoplanin], the Bliss interaction score in the assay with S. aureus Newman (main component drawn) is -0.228; in the assay with S. aureus DSM 20231 (main component drawn) it was -0.126; with B. subtilis 168 (main component drawn) it was -0.0487; in the assay with S. pneumoniae D39V (main component drawn), -0.0795.
On to `CC[C@H](C)[C@H](N)C1=N[C@H](C(=O)N[C@@H](CC(C)C)C(=O)N[C@H](CCC(=O)O)C(=O)N[C@H](C(=O)N[C@H]2CCCCNC(=O)[C@H](CC(N)=O)NC(=O)[C@@H](CC(=O)O)NC(=O)[C@H](Cc3cnc[nH]3)NC(=O)[C@@H](Cc3ccccc3)NC(=O)[C@H]([C@@H](C)CC)NC(=O)[C@@H](CCCN)NC2=O)[C@@H](C)CC)CS1` [Bacitracin] + CO[C@@]12[C@H](COC(N)=O)C3=C(C(=O)C(C)=C(N)C3=O)N1C[C@@H]1N[C@@H]12 [MitomycinC], for which the Bliss interaction score with S. aureus Newman (main component drawn) was -0.0961; with S. aureus DSM 20231 (main component drawn), -0.0743; in the assay on B. subtilis 168 (main component drawn) it was -0.0673; in the assay with S. pneumoniae D39V (main component drawn), -0.0853.
On to `CN[C@H](CC(C)C)C(=O)N[C@H]1C(=O)N[C@@H](CC(N)=O)C(=O)N[C@H]2C(=O)N[C@H]3C(=O)N[C@H](C(=O)N[C@H](C(=O)O)c4cc(O)cc(O)c4-c4cc3ccc4O)[C@H](O[C@H]3C[C@](C)(N)[C@@H](O)[C@H](C)O3)c3ccc(c(Cl)c3)Oc3cc2cc(c3O[C@@H]2O[C@H](CO)[C@@H](O)[C@H](O)[C@H]2O[C@H]2C[C@](C)(NCc3ccc(-c4ccc(Cl)cc4)cc3)[C@@H](O)[C@H](C)O2)Oc2ccc(cc2Cl)[C@H]1O` [Oritavancin] + Cn1nnc(-c2ccc(-c3ccc(N4C[C@H](CO)OC4=O)cc3F)cn2)n1 [Tedizolid], for which the Bliss interaction score was -0.0895 in the assay on S. aureus Newman, -0.0541 in the assay on S. aureus DSM 20231, -0.0251 in the assay on B. subtilis 168 and -0.0205 in the assay with S. pneumoniae D39V.
`CN[C@H](CC(C)C)C(=O)N[C@H]1C(=O)N[C@@H](CC(N)=O)C(=O)N[C@H]2C(=O)N[C@H]3C(=O)N[C@H](C(=O)N[C@H](C(=O)O)c4cc(O)cc(O)c4-c4cc3ccc4O)[C@H](O[C@H]3C[C@](C)(N)[C@@H](O)[C@H](C)O3)c3ccc(c(Cl)c3)Oc3cc2cc(c3O[C@@H]2O[C@H](CO)[C@@H](O)[C@H](O)[C@H]2O[C@H]2C[C@](C)(NCc3ccc(-c4ccc(Cl)cc4)cc3)[C@@H](O)[C@H](C)O2)Oc2ccc(cc2Cl)[C@H]1O` [Oritavancin] + CN[C@@H]1[C@H](O[C@H]2[C@H](O[C@H]3[C@H](O)[C@@H](O)[C@H](N=C(N)N)[C@@H](O)[C@@H]3N=C(N)N)O[C@@H](C)[C@]2(O)C=O)O[C@@H](CO)[C@H](O)[C@H]1O [Streptomycin]: the Bliss interaction score in the assay on S. aureus Newman was -0.138; in the assay on S. aureus DSM 20231, -0.111; in the assay on B. subtilis 168 it was -0.0219; in the assay with S. pneumoniae D39V, 0.0462.
Turning to `CO[C@@H]1[C@@H](OC(N)=O)[C@@H](O)[C@H](Oc2ccc3c(O)c(NC(=O)c4ccc(O)c(CC=C(C)C)c4)c(=O)oc3c2C)OC1(C)C` [Novobiocin] + CC[C@H]1OC(=O)[C@H](C)C(=O)[C@H](C)[C@@H](O[C@@H]2O[C@H](C)C[C@H](N(C)C)[C@H]2O)[C@](C)(OC)C[C@@H](C)C(=O)[C@H](C)[C@H]2N(CCCCn3cnc(-c4cccnc4)c3)C(=O)O[C@]12C [Telithromycin], the Bliss interaction score is -0.0192 in the assay on S. aureus Newman, 0.0515 in the assay with S. aureus DSM 20231, 0.0833 in the assay with B. subtilis 168 and 0.0464 in the assay on S. pneumoniae D39V.
`CC[C@H]1OC(=O)[C@H](C)[C@@H](O[C@H]2C[C@@](C)(OC)[C@@H](O)[C@H](C)O2)[C@H](C)[C@@H](O[C@@H]2O[C@H](C)C[C@H](N(C)C)[C@H]2O)[C@](C)(O)C[C@@H](C)C(=O)[C@H](C)[C@@H](O)[C@]1(C)O` [Erythromycin] + CN[C@H](CC(C)C)C(=O)N[C@H]1C(=O)N[C@@H](CC(N)=O)C(=O)N[C@H]2C(=O)N[C@H]3C(=O)N[C@H](C(=O)N[C@H](C(=O)O)c4cc(O)cc(O)c4-c4cc3ccc4O)[C@H](O)c3ccc(c(Cl)c3)Oc3cc2cc(c3O[C@@H]2O[C@H](CO)[C@@H](O)[C@H](O)[C@H]2O[C@H]2C[C@](C)(N)[C@H](O)[C@H](C)O2)Oc2ccc(cc2Cl)[C@H]1O [Vancomycin]: the Bliss interaction score was -0.0375 with S. aureus Newman, 0.0298 in the assay on S. aureus DSM 20231, 0.035 in the assay with B. subtilis 168 and 0.0403 in the assay on S. pneumoniae D39V.
For the compound `CO[C@@H]1[C@@H](OC(N)=O)[C@@H](O)[C@H](Oc2ccc3c(O)c(NC(=O)c4ccc(O)c(CC=C(C)C)c4)c(=O)oc3c2C)OC1(C)C` [Novobiocin] + CCCCCCCCCC(=O)N[C@@H]1[C@H]([C@@H]([C@H](O[C@H]1OC2=C3C=C4C=C2OC5=C(C=C(C=C5)[C@H]([C@H]6C(=O)N[C@@H](C7=C(C(=CC(=C7)O)OC8[C@H]([C@H]([C@@H]([C@H](O8)CO)O)O)O)C9=C(C=CC(=C9)[C@H](C(=O)N6)NC(=O)[C@@H]4NC(=O)[C@@H]1C2=CC(=CC(=C2)OC2=C(C=CC(=C2)[C@H](C(=O)N[C@H](CC2=CC(=C(O3)C=C2)Cl)C(=O)N1)N)O)O)O)C(=O)O)O[C@H]1[C@@H]([C@H]([C@@H]([C@H](O1)CO)O)O)NC(=O)C)Cl)CO)O)O [Teicoplanin], the Bliss interaction score was -0.234 in the assay on S. aureus Newman (main component drawn), -0.102 with S. aureus DSM 20231 (main component drawn), 0.127 in the assay on B. subtilis 168 (main component drawn) and 0.0574 in the assay on S. pneumoniae D39V (main component drawn).
For `CC[C@H](C)[C@H](N)C1=N[C@H](C(=O)N[C@@H](CC(C)C)C(=O)N[C@H](CCC(=O)O)C(=O)N[C@H](C(=O)N[C@H]2CCCCNC(=O)[C@H](CC(N)=O)NC(=O)[C@@H](CC(=O)O)NC(=O)[C@H](Cc3cnc[nH]3)NC(=O)[C@@H](Cc3ccccc3)NC(=O)[C@H]([C@@H](C)CC)NC(=O)[C@@H](CCCN)NC2=O)[C@@H](C)CC)CS1` [Bacitracin] + O=C1CN(/N=C/c2ccc([N+](=O)[O-])o2)C(=O)N1 [Nitrofurantoin], the Bliss interaction score in the assay on S. aureus Newman (main component drawn) is 0.0654; in the assay with S. aureus DSM 20231 (main component drawn), -0.0336; in the assay with B. subtilis 168 (main component drawn), -0.192; in the assay with S. pneumoniae D39V (main component drawn), -0.0709.
